# Where “and” joins values, the source holds several entries; their conditions need not be identical. Equal values may be shown once. Non-standard residues stand in square brackets, D forms with d. Residues, ends and D or L forms follow the SMILES beside them. pGlu = O=C1CC[C@@H](C(=O)O)N1
# Legend:
# [1] = test system: endogenously expressed purinoceptors; assay: ATP positive control in the bioluminescence assay; assay type: cell-based, Chinese hamster; details: 50 μM ATP
# Experimental: Synthetic peptide stocks of naturally-occurring AKH-related peptides [corazonin, adipokinetic hormone corazonin-like peptide (ACP)], alanine-substituted analogs of Carmo-HrTH-II, natural C. morosus AKH peptides, and several AKHs from other arthropod species in synthetic form were used for preparation of serial dilutions all of which were prepared in assay media (DMEM-F12 media containing 0.1% bovine serum albumin, 1X antimycotic-antibiotic) and loaded in triplicate or quadruplicate into 96-well white luminescence plates (Greiner Bio-One, Germany). Cells stably expressing Carmo-AKHR and transiently expressing aequorin were loaded with an automated injector unit into each individual well containing different test compounds at various concentrations, including assay media alone (negative control wells) and 50 μM ATP (positive control wells) acting on endogenously expressed purinoceptors ([34], [35]). Immediately after injection of the cells into each well, luminescence was measured for 20 s using a Synergy 2 Multi-Mode Microplate Reader (BioTek, Winooski, VT, USA). […] Data were analyzed using a one-way or two-way ANOVA and Tukey’s multiple comparisons post-hoc test, with differences between treatments considered significant if p<0.05.
# [2] = test system: Carausius morosus AKH receptor (Carmo-AKHR); assay type: cell-based; details: transient Carmo-AKHR, co-expressing murine promiscuous G protein
# [3] = test system: Carausius morosus AKH receptor (Carmo-AKHR); assay: Calcium bioluminescence (aequorin) reporter assay, CHO-K1 cells stably expressing Carmo-AKHR; assay type: cell-based; details: for EC50: CHO-K1 stably expressing Carmo-AKHR, transiently aequorin, luminescence measured 20 s, from dose-response activation curves, 3 to 4 independent biological replicates, normalized to ATP maximum, read-out: EC50 value; for Fold-reduction in activity (receptor activation relative to Carmo-HrTH-II): ratio of EC50 relative to Carmo-HrTH-II
# Experimental: Functional activation of Carmo-AKHR was carried out by following mammalian cell culture procedures as previously described ([20], [29]) with the following modifications. […] At 24 h post-transfection, cells were selected in DMEM:F12 media containing 10% heat-inactivated fetal bovine serum (Wisent, St. Bruno, QC), 1x antimycotic-antibiotic and 600 μg/mL geneticin (G418) until clonal recombinant cells were evident in transfected cells while no live cells were present in non-transfected CHO-K1 cells (control). Individual clonal recombinant colonies were seeded into separate wells of a 96 well cell-culture dish (Sarstedt Inc., Montreal, QC) and grown to confluence while maintaining geneticin selection. To identify clonal recombinant lines with optimal Carmo-AKHR activity yielding the greatest signal-to-noise ratio, individual clonal recombinant lines were assayed in the bioluminescence reporter assay as described previously ([30]). […] The recombinant cell line showing the optimal luminescent response with greatest signal-to-noise ratio was expanded for preparation of cryo-stocks and subsequent detailed investigation of receptor specificity. […] Bruno, QC), 250 μg/mL Geneticin (MilliporeSigma Canada Ltd., Oakville, ON) and 1X antimycotic-antibiotic (ThermoFisher Scientific, Whitby, ON). […] Transfection was completed with PolyJetTM DNA In Vitro Transfection Reagent (FroggaBio, Toronto, ON) following manufacturer recommendations for transfection of adherent cells. At 48 hours post-transfection, cells were detached from culture flasks using Dulbecco's PBS (Wisent, St. Bruno, QC) containing 5 mM Ethylenediaminetetraacetic acid (EDTA) and were prepared for the functional assay as previously described ([30]). […] Immediately after injection of the cells into each well, luminescence was measured for 20 s using a Synergy 2 Multi-Mode Microplate Reader (BioTek, Winooski, VT, USA). […] Data were analyzed using a one-way or two-way ANOVA and Tukey's multiple comparisons post-hoc test, with differences between treatments considered significant if p<0.05.
# [4] = test system: Carausius morosus; details: in vivo bioassay, stick insect; cited from earlier work
# From the text: C. morusus produces decapeptide AKHs that function optimally via the Carmo-AKHR. Two shorter bioanalogs with high identity to Carmo-HrTH were available for testing in the receptor activation assay: Triin-AKH, an amidated nonapeptide that ends in Gly^9 and the amidated octapeptide, Peram-CAH-II that ends in Trp^8. These peptides produced receptor activation curves with EC50 values similar to those of the endogenous AKH peptides ( Table 2 ). Taken on its own, this may indicate that the C-terminal amino acids of Carmo-HrTH (thus Thr^10 and Gly^9) are not critical for activation of Carmo-AKHR, and ... || Replacing the aromatic amino acids, Phe^4 or Trp^8 that are iconic for most natural members of the AKH family, with a nonpolar amino acid like Ala, completely abolished receptor activation in the current in vitro study. Earlier in vivo investigations on L. migratoria ([58]), as well as AKH/RPCH ligand-receptor model studies on S. gregaria and D. pulex made it clear that these two aromatic residues are critical for receptor binding ([55], [56]). […] Clearly, this position in the AKH ligand appear ...
SMILES,Maximal luminescent response [1],Luminescence relative to assay media (BSA) alone [2],EC50 [3],Fold-reduction in activity (receptor activation relative to Carmo-HrTH-II) [3],Hypertrehalosemic effect in vivo (in words) [4]
Nc1ncnc2c1ncn2[C@@H]1O[C@H](COP(=O)(O)OP(=O)(O)OP(=O)(O)O)[C@@H](O)[C@H]1O [ATP],about 12 000,,,,
CC(C)C[C@H](NC(=O)[C@@H]1CCC(=O)N1)C(=O)N[C@H](C(=O)N[C@@H](Cc1ccccc1)C(=O)N[C@H](C(=O)N1CCC[C@H]1C(=O)N[C@@H](CO)C(=O)N[C@@H](Cc1c[nH]c2ccccc12)C(N)=O)[C@@H](C)O)[C@@H](C)O [Aedae-AKH] ([pGlu]LTFTPSW-NH2),,~ 3 fold,1030 nM,14 fold and 14.00 fold,
CC(C)C[C@H](NC(=O)[C@@H]1CCC(=O)N1)C(=O)N[C@@H](CC(N)=O)C(=O)N[C@@H](Cc1ccccc1)C(=O)N[C@H](C(=O)N1CCC[C@H]1C(=O)N[C@@H](CC(N)=O)C(=O)N[C@@H](Cc1c[nH]c2ccccc12)C(=O)NCC(=O)N[C@H](C(N)=O)[C@@H](C)O)[C@@H](C)O [Locmi-AKH-I] ([pGlu]LNFTPNWGT-NH2),,,4140 nM,,biological function is impaired
CC(C)C[C@H](NC(=O)[C@@H]1CCC(=O)N1)C(=O)N[C@H](C(=O)N[C@@H](Cc1ccccc1)C(=O)N[C@H](C(=O)N1CCC[C@H]1C(=O)N[C@@H](CC(N)=O)C(=O)N[C@@H](Cc1c[nH]c2ccccc12)C(N)=O)[C@@H](C)O)[C@@H](C)O [Peram-CAH-II] ([pGlu]LTFTPNW-NH2),,,388 nM,5 fold and 5.28 fold,only about a third of what the native decapeptide achieved
CC(C)C[C@H](NC(=O)[C@@H]1CCC(=O)N1)C(=O)N[C@H](C(=O)N[C@@H](Cc1ccccc1)C(=O)N[C@H](C(=O)N1CCC[C@H]1C(=O)N[C@@H](CC(N)=O)C(=O)N[C@@H](Cc1c[nH]c2ccccc12)C(=O)NCC(=O)N[C@@H](CO)C(N)=O)[C@@H](C)O)[C@@H](C)O [Phyle-CC] ([pGlu]LTFTPNWGS-NH2),,,18 nM,0.24 fold,not at all (in vivo) affected
CC(C)C[C@H](NC(=O)[C@@H]1CCC(=O)N1)C(=O)N[C@@H](CC(N)=O)C(=O)N[C@@H](Cc1ccccc1)C(=O)N[C@H](C(=O)N1CCC[C@H]1C(=O)N[C@@H](CC(N)=O)C(=O)N[C@@H](Cc1c[nH]c2ccccc12)C(=O)NCC(=O)N[C@@H](CO)C(N)=O)[C@@H](C)O [Phymo-AKH] ([pGlu]LNFTPNWGS-NH2),,,5050 nM,68.66 fold,absence of function in vivo
